Like-named read-outs stand apart in the source and are kept apart here.
Assays:
HOZ mice [1] = assay: BUN as a marker of nephrotoxicity in HOZ mice; type: in vivo, mouse; conditions: female, 13 mg/kg
Procedure: (§1) Terminal blood samples were taken by cardiac puncture into lithium/heparin-coated tubes for preparation of plasma. Tissues, as defined in each protocol, were routinely dissected as follows:
(§2) Following removal into tubes suitable for plasma preparation, venous blood samples were mixed on a roller for 10 minutes then cooled on ice. Red blood cells were removed by centrifugation at 2,000 rpm for 10 minutes at 8-10° C. The supernatant (plasma) was transferred to a second tube and stored at −70° C. until required for analysis.
(§3) Plasma samples were analysed for appropriate analytes on a Roche autoanalyser (Cobas Integra 400) according to the manufacturer's instructions. The routine markers measured included: (for liver damage) plasma alanine aminotransferase (ALT), aspartate aminotransferase (AST) and alkaline phosphatase (ALP) and (for kidney damage) plasma creatinine and blood urea nitrogen (BUN).
The increase in BUN was 6-fold at 8 hours and 44-fold after 24 hours.

HOZ mice [2] = assay: Plasma AST as a marker of hepatotoxicity in HOZ mice; type: in vivo, mouse; conditions: female, 13 mg/kg
Procedure: as §1, §2, §3
Two plasma enzyme markers, ALT and AST, were used as markers of hepatotoxicity in HOZ mice treated with cadmium chloride or sodium arsenite. […]

HOZ mice [3] = assay: Plasma ALT as a marker of hepatotoxicity in HOZ mice; type: in vivo, mouse; conditions: 13 mg/kg; for Plasma ALT: female
Procedure: as §1, §2, §3
Two plasma enzyme markers, ALT and AST, were used as markers of hepatotoxicity in HOZ mice treated with cadmium chloride or sodium arsenite. The results of this analysis for HOZ mice treated with 10 mg/kg cadmium chloride are shown in Table 1 and for HOZ mice treated with 2-8 mg/kg cadmium chloride or 13 mg/kg sodium arsenite in Tables 2 and 3.

[4] = tested on: HO-1-LacZ (HOZ) transgene; assay: LacZ transgene expression in HO-1-LacZ (HOZ) reporter mice; type: in vivo, mouse; conditions: female HOZ mice, 13 mg/kg i.p. in isotonic saline, 8 hours or 24 hours
Procedure: (§4) Each test compound was dissolved in the appropriate vehicle solution and administered by intraperitoneal injection (i.p.) at a dose volume of 10 ml/kg. Wherever possible, both naive (untreated) and vehicle-treated controls were used. If a test item whose toxicity in the mouse is poorly characterised was to be used, a dose-ranging experiment was conducted prior to the main experiment. The test item was administered to a single mouse which was monitored for any adverse effects 6-8 hours and 24 hours later. If the single dose ranging mouse tolerated the treatment, the remaining mice were administered the test item according to the protocol.
(§5) Two slices of tissue (˜2 mm thickness) were removed for histochemical analysis of LacZ expression according to methods described below.
(§6) Tissues were washed with PBS and prefixed in 0.2% glutaraldehyde in PBS containing 0.1M MgCl2 and 5 mM EDTA, pH 7.3, for 4 hours at 4° C. on a shaker. After fixation, the tissues were transferred to 20% Sucrose solution and dehydrated overnight at 4° C. The next day they were embedded in cryo-M-bed medium on cork discs and lowered slowly into liquid nitrogen then transferred to −80° C. until sections were required.
(§7) Cryostat sample and chamber temperatures were set to −30° C. The sample to be sectioned was placed in the cryostat one hour prior to sectioning to allow equilibration at the appropriate temperature. Frozen sections (10 μm) were cut and placed on aminopropyltriethoxysilane (APES) coated slides.
(§8) Prior to staining, sections were incubated in 0.2% glutaraldehyde (as above) for 10 minutes at room temperature then washed twice (5 min each) in PBS containing 2 mM MgCl2, 0.01% sodium deoxycholate and 0.02% % Nonidet-P40. Sections were then […] the same wash solution containing 1 mg/ml X-gal, 5 mM potassium ferrocyanide and 5 mM potassium ferricyanide overnight at 37° C. then washed twice in PBS for 5 min, allowed to air dry and mounted in aqueous mounting medium (Hydromount). Slides were evaluated and photographed. • Frozen Method 2
Tissues were excised, immediately placed into chilled 4% paraformaldehyde containing 0.1% glutaraldehyde and 2 mM MgCl2 in PBS, and fixed in the above solution for 3 hours at 2-8° C. with gentle shaking. Fixed tissues were washed at 2-8° C. for 3×5 minutes with chilled PBS containing 2 mM MgCl2 and dehydrated overnight at 2-8° C. in PBS containing 2 mM MgCl2 and 30% (w/v) sucrose overnight The next day dehydrated tissues were embedded in OCT embedding medium using an isopentane/dry ice bath. Embedded tissues were stored at −70° C. until they could be cryosectioned.
Frozen sections were washed three times for 5 minutes in PBS containing 2 mM MgCl2 at 2-8° C. then 3×30 min in detergent wash (PBS containing 2 mM MgCl2 0.01% Nonidet P40 and 0.1% Sodium Deoxycholate) at 2-8° C. They were then stained overnight in PBS containing 2 mM MgCl2, 0.02% Nonidet P40, 0.1% Sodium Deoxycholate, 5 mM Potassium ferrocyanide, 5 mM Potassium ferricyanide, and 0.1% X-gal at 37° C. The next day, the slides were washed three times for 5 minutes in PBS containing 2 mM MgCl2 followed by three times for 5 minutes in PBS at room temperature. They were equilibrated with 100% ethanol (5 min) and counterstained with Eosin for 1 min at room temperature. Following dehydration and mounting they were evaluated and photographed. • Whole Mount Method
Tissue specimens that had been prefixed in fresh 4% paraformaldehyde were stained immediately using the procedure for “Whole Mount X-Gal Histochemistry of Transgenic Animal Tissues” (see http://www.rodentia.com/wmc/docs/lacZ bible.html), summarised below) was followed, and the post-fixed tissues were transferred to 70% (v/v) ethanol.
Following fixation for one hour in 4% paraformaldehyde, tissues were rinsed three times, for thirty minutes each, with rinse buffer (100 mM sodium phosphate (pH 7.3), 2 mM MgCl2, 0.01% sodium deoxycholate, 0.02% NP-40) at room temperature. […]

[5] = dissolved in DMSO, injected intra-peritoneally; cited from earlier work
p21-LacZ (WAZ) transgene = type: in vivo, mouse
Procedure: as §4, §5
Mouse brains were dissected so as to reveal the dentate gyrus as fully as possible. In the case of the kidneys, one kidney was cut in longitudinal section and the other in transverse section.
as §6, §7, §8
In experiments on WAZ44 mice, single doses of etoposide (of up to 40 mg/kg) were administered i.p. Animals were killed after 24 hours and tissues fixed and stained for LacZ expression.
Acrylamide, at a total dose of 150 mg/kg, induces neuropathy manifesting as partial paralysis approximately 7 days after the start of treatment. The dose may be administered as a single injection or divided; however, the effect depends upon the total dose, and since a single dose of 150 mg/kg is likely to be acutely toxic, a five-day coursed of injections of 30 mg/kg is preferred. Acrylamide intoxication is associated with both central and peripheral effects; the central effects include behavioural changes (increased milk-licking) which occur within two days of dosing, preceding peripheral changes such as reduced hind-limb grip and reduced locomotor activity by up to three weeks (Teal and Evans, 1982). In experiments on WAZ44 mice, five doses of acrylamide (30 mg/kg) were administered i.p.
A frozen section from the brain of an acrylamide-treated WAZ44 mouse was prepared and stained using Frozen Method 1. A dissecting microscope was used to view the slides and generate photomicrographs (a) transverse section of whole brain, original magnification ×10; (b) dentate gyrus and hippocampus, original magnification ×25 (c) cortex, original magnification ×63.
WAZ mice received single i.p. injections of etoposide (40 mg/kg); mercuric chloride (HgCl2, 8.5 mg/kg); lipopolysaccharide (LPS, 1.5 mg/kg) or paracetamol (300 mg/kg). WAZ mice received a single i.p. injection of each compound at a single dose level (see FIG. 5). Twenty-four hours later, the mice were killed and the brains sectioned and stained for LacZ expression.

[6] = tested on: HO-1-LacZ reporter transgene in HEK293 cells; assay: Transient transfection of HO-1-LacZ reporter construct into HEK293 cells, induction with haemin; type: cell-based, mouse
Excerpt: We have used RedET recombination cloning (Zhang et al., 2000) to produce a HO-1-LacZ reporter transgene. A LacZ-SV40polyA minigene was engineered to contain homologous regions to exons 1 and 2 of the HO-1 gene. This minigene cassette also contains a bacterial Amp gene, at the 3′-end, which was used as a selectable marker during cloning. The minigene was then introduced, by homologous recombination, into a BAC clone containing the mouse HO-1 locus (clone RPCI-23 290L07, HGMP Resource Centre) substituting for the endogenous HO-1 exon1 and intron1 sequences. Thus, the HO-1 promoter would express LacZ from the ATG start codon, in place of the HO-1 protein. The correct position of the LacZ-SV40polyA minigene was confirmed by sequencing both the 5′- and 3′-junction regions. The HO-1 reporter locus, containing most of the HO-1 gene together with 16.5 kb of upstream promoter and 8 kb of 3′ sequence, was then recombined out from the BAC clone into the pACYC low copy number plasmid backbone.

[7] = WAZ mice, single i.p. injection (etoposide 40 mg/kg; HgCl2 8.5 mg/kg; LPS 1.5 mg/kg; paracetamol 300 mg/kg), 24 hours

## O=[As]O [Sodium Arsenite, sodium arsenite]
HOZ mice [1]; 8 hours
  BUN: 5.62
HOZ mice [1]; 24 hours
  BUN: 3.50
HOZ mice [2]; 8 hours
  Plasma AST: 107.3 u/L
HOZ mice [2]; 24 hours
  Plasma AST: 67.8 u/L
HOZ mice [3]; HOZ mice
  hepatotoxic response (plasma ALT, AST): did not exhibit a hepatotoxic response
HOZ mice [3]; 8 hours
  Plasma ALT: 43.0 u/L
HOZ mice [3]; 24 hours
  Plasma ALT: 26.7 u/L
[4]
  HOZ transgene expression in liver: expression of the HOZ transgene at both time points

## COc1cc([C@@H]2c3cc4c(cc3[C@@H](O[C@@H]3O[C@@H]5CO[C@@H](C)O[C@H]5[C@H](O)[C@H]3O)[C@H]3COC(=O)[C@H]23)OCO4)cc(OC)c1O [etoposide]
[5]
  LD50: 40 mg/kg
p21-LacZ (WAZ) transgene; WAZ44 mice, single doses of up to 40 mg/kg i.p., killed after 24 hours
  LacZ transgene expression in tissues: significant expression in the spleen, the thymus and in some regions of the brain
p21-LacZ (WAZ) transgene; mouse, in vivo
  expression of the WAZ transgene in the brain: high levels of expression
  pattern of WAZ transgene induction in the brain: induced expression in the same cells within the various regions in the brain

## C=CC1=C(C)c2cc3[n-]c(cc4nc(cc5[n-]c(cc1n2)c(C)c5C=C)C(C)=C4CCC(=O)O)c(CCC(=O)O)c3C.[Cl-].[Fe+3] [haemin]
[6]
  increase in the LacZ labelling index over uninduced control cells: 11 fold

## [Cl][Hg][Cl] [mercuric chloride]
p21-LacZ (WAZ) transgene; [7]
  expression of the WAZ transgene in the brain: high levels of expression
  pattern of WAZ transgene induction in the brain: induced expression in the same cells within the various regions in the brain

## CC(=O)Nc1ccc(O)cc1 [paracetamol]
p21-LacZ (WAZ) transgene; mouse, in vivo
  expression of the WAZ transgene in the brain: high levels of expression
  pattern of WAZ transgene induction in the brain: distinct pattern of induction within the hippocampus, cerebellum and cortex

## lipopolysaccharide [LPS]
p21-LacZ (WAZ) transgene; [7]
  expression of the WAZ transgene in the brain: high levels of expression
  pattern of WAZ transgene induction in the brain: induced expression in the same cells within the various regions in the brain
